Experimental data published in ChEMBL document CHEMBL3588760, “Inhibitors of melanogenesis in B16 melanoma 4A5 cells from flower buds of Lawsonia inermis (Henna)” (Bioorg Med Chem Lett, 2015).

How the values were obtained:
[1] = Inhibition of melanogenesis in theophylline-stimulated mouse B16-4A5 cells at 10 uM after 72 hrs by microplate reader analysis relative to control; assay type: functional; details: B16-4A5, 72 h
[2] = Cytotoxicity against mouse B16-4A5 cells assessed as cell viability at 1 uM after 70 hrs by WST-8 assay relative to control; assay type: cell-based; details: read-out: Activity
[3] = Cytotoxicity against mouse B16-4A5 cells assessed as cell viability at 3 uM after 70 hrs by WST-8 assay relative to control; assay type: cell-based; details: read-out: Activity
[4] = Cytotoxicity against mouse B16-4A5 cells assessed as cell viability at 10 uM after 70 hrs by WST-8 assay relative to control; assay type: cell-based; details: read-out: Activity
[5] = biological target: Plasminogen (Homo sapiens) (UniProt P00747); experiment: Inhibition of plasmin (unknown origin) at 100 uM after 18 hrs by arianor mahogany dye-based fibrin plate assay relative to control
Chain of Plasminogen (Homo sapiens) (P00747 97-580 limits assumed): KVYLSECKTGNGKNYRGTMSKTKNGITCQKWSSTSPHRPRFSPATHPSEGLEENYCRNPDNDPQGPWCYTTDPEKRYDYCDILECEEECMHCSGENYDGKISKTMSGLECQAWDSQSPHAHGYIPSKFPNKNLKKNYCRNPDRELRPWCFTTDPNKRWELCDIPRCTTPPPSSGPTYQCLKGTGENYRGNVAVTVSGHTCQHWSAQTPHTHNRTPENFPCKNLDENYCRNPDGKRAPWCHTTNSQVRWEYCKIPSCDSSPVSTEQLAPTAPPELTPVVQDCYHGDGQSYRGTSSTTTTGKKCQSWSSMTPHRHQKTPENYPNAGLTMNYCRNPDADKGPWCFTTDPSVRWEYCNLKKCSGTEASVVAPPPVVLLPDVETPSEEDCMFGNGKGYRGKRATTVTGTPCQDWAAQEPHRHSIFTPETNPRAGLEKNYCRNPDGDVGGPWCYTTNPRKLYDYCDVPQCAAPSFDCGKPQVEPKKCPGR
Chain of Plasminogen (Homo sapiens) (P00747 581-810 limits assumed): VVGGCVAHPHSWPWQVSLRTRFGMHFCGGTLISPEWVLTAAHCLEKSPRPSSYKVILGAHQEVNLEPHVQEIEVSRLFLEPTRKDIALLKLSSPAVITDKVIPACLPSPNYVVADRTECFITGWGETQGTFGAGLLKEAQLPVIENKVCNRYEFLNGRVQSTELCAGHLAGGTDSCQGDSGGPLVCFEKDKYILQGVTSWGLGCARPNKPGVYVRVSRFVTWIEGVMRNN

[6] = Inhibition of melanogenesis in theophylline-stimulated mouse B16-4A5 cells at 3 uM after 72 hrs by microplate reader analysis relative to control; assay type: functional; details: B16-4A5, 72 h
[7] = Inhibition of melanogenesis in theophylline-stimulated mouse B16-4A5 cells at 1 uM after 72 hrs by microplate reader analysis relative to control; assay type: functional; details: B16-4A5, 72 h
[8] = Cytotoxicity against mouse B16-4A5 cells assessed as cell viability at 30 uM after 70 hrs by WST-8 assay relative to control; assay type: cell-based; details: read-out: Activity
[9] = Downregulation of tyrosinase mRNA expression in theophylline-stimulated mouse B16-4A5 cells assessed as ratio of tyrosinase mRNA to beta-actin mRNA level at 3 uM after 72 hrs by qPCR analysis; assay type: functional, cell-based
[10] = Downregulation of TRP-1 mRNA expression in theophylline-stimulated mouse B16-4A5 cells assessed as ratio of TRP-1 mRNA to beta-actin mRNA level at 30 uM after 72 hrs by qPCR analysis; assay type: functional, cell-based
[11] = Downregulation of tyrosinase mRNA expression in theophylline-stimulated mouse B16-4A5 cells assessed as ratio of tyrosinase mRNA to beta-actin mRNA level at 10 uM after 72 hrs by qPCR analysis; assay type: functional, cell-based
[12] = Downregulation of TRP-2 mRNA expression in theophylline-stimulated mouse B16-4A5 cells assessed as ratio of TRP-2 mRNA to beta-actin mRNA level at 10 uM after 72 hrs by qPCR analysis; assay type: functional, cell-based
[13] = Inhibition of melanogenesis in theophylline-stimulated mouse B16-4A5 cells at 100 uM after 72 hrs by microplate reader analysis relative to control; assay type: functional; details: B16-4A5, 72 h
[14] = Downregulation of TRP-2 mRNA expression in theophylline-stimulated mouse B16-4A5 cells assessed as ratio of TRP-2 mRNA to beta-actin mRNA level at 3 uM after 72 hrs by qPCR analysis; assay type: functional, cell-based
[15] = Downregulation of TRP-2 mRNA expression in theophylline-stimulated mouse B16-4A5 cells assessed as ratio of TRP-2 mRNA to beta-actin mRNA level at 30 uM after 72 hrs by qPCR analysis; assay type: functional, cell-based
[16] = Downregulation of tyrosinase mRNA expression in theophylline-stimulated mouse B16-4A5 cells assessed as ratio of tyrosinase mRNA to beta-actin mRNA level at 30 uM after 72 hrs by qPCR analysis; assay type: functional, cell-based
[17] = Cytotoxicity against mouse B16-4A5 cells assessed as cell viability at 100 uM after 70 hrs by WST-8 assay relative to control; assay type: cell-based; details: read-out: Activity
[18] = Downregulation of TRP-1 mRNA expression in theophylline-stimulated mouse B16-4A5 cells assessed as ratio of TRP-1 mRNA to beta-actin mRNA level at 10 uM after 72 hrs by qPCR analysis; assay type: functional, cell-based
[19] = Downregulation of TRP-1 mRNA expression in theophylline-stimulated mouse B16-4A5 cells assessed as ratio of TRP-1 mRNA to beta-actin mRNA level at 3 uM after 72 hrs by qPCR analysis; assay type: functional, cell-based
[20] = Inhibition of melanogenesis in theophylline-stimulated mouse B16-4A5 cells at 30 uM after 72 hrs by microplate reader analysis relative to control; assay type: functional; details: B16-4A5, 72 h
[21] = biological target: T1, Tyrosinase (Agaricus bisporus) (UniProt O42713); experiment: Inhibition of mushroom tyrosinase using L-DOPA as substrate assessed as dopaquinone production at 100 uM after 5 mins by microplate reader analysis relative to control
T1 sequence (whole entry): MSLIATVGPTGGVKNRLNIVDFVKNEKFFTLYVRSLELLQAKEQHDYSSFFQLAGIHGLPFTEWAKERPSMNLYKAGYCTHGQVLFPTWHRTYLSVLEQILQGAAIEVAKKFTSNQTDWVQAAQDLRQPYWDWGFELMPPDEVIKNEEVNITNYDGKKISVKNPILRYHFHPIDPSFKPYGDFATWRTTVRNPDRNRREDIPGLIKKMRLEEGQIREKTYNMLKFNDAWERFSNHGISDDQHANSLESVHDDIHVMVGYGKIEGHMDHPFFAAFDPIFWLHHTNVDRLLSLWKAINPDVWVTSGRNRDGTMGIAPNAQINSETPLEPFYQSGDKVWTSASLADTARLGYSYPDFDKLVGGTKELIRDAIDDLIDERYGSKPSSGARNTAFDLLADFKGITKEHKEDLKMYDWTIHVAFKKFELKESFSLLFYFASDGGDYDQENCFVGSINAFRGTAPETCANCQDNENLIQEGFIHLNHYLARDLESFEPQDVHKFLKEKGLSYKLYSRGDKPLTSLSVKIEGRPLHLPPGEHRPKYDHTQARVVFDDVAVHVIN

COc1ccc(-c2oc3cc(O)cc(O)c3c(=O)c2O[C@@H]2O[C@H](CO)[C@@H](O)[C@H](O)[C@H]2O)cc1O
inhibition at 10 µM [1]: -10.7%
viability at 70 h, 1 µM [2]: 93.4%
viability at 70 h, 3 µM [3]: 91.3%
viability at 70 h, 10 µM [4]: 86.2%
inhibition [5]: 33.1%
inhibition at 3 µM [6]: 3.3%
inhibition at 1 µM [7]: 7.7%

COc1ccc(-c2cc(=O)c3c(O)cc(O)cc3o2)cc1O[C@@H]1O[C@H](CO)[C@@H](O)[C@H](O)[C@H]1O
inhibition at 10 µM [1]: 40.6%
viability at 70 h, 1 µM [2]: 92.8%
viability at 70 h, 3 µM [3]: 91.4%
viability at 70 h, 30 µM [8]: 79.4%
Ratio [9]: 1.22
Ratio [10]: 0.77
Ratio [11]: 0.99
Ratio [12]: 0.92
inhibition at 100 µM [13]: 61.5%
Ratio [14]: 1.08
Ratio [15]: 0.93
viability at 70 h, 10 µM [4]: 94.5%
Ratio [16]: 1.09
viability at 70 h, 100 µM [17]: 66.2%
inhibition [5]: 28.5%
inhibition at 3 µM [6]: 18%
Ratio [18]: 1.08
Ratio [19]: 0.85
inhibition at 1 µM [7]: 6.3%
inhibition at 30 µM [20]: 44.1%

O=c1cc(-c2ccc(O[C@@H]3O[C@H](CO)[C@@H](O)[C@H](O)[C@H]3O)c(O)c2)oc2cc(O)cc(O)c12
inhibition at 10 µM [1]: 38.6%
viability at 70 h, 1 µM [2]: 99.6%
viability at 70 h, 3 µM [3]: 105%
inhibition [21]: 4.4%
viability at 70 h, 10 µM [4]: 114%
inhibition [5]: 41.7%
inhibition at 3 µM [6]: 31%
inhibition at 1 µM [7]: 27.7%

NC[C@H]1CC[C@H](C(=O)O)CC1
inhibition [5]: 9.5%

O=C1CC(c2ccc(O)c(O)c2)Oc2cc(O)cc(O)c21 (racemic)
inhibition at 10 µM [1]: 37.2%
viability at 70 h, 1 µM [2]: 108%
viability at 70 h, 3 µM [3]: 101%
viability at 70 h, 30 µM [8]: 72.6%
Ratio [9]: 0.97
Ratio [10]: 0.29
Ratio [11]: 0.66
Ratio [12]: 0.55
inhibition [21]: 3.1%
inhibition at 100 µM [13]: 61.1%
Ratio [14]: 0.67
Ratio [15]: 0.43
viability at 70 h, 10 µM [4]: 88.2%
Ratio [16]: 0.38
viability at 70 h, 100 µM [17]: 55.9%
inhibition [5]: 20.7%
inhibition at 3 µM [6]: 10.3%
Ratio [18]: 0.36
Ratio [19]: 0.94
inhibition at 1 µM [7]: 5.8%
inhibition at 30 µM [20]: 42.5%

O=c1cc(-c2ccc(O)c(O)c2)oc2cc(O[C@@H]3O[C@H](CO)[C@@H](O)[C@H](O)[C@H]3O)cc(O)c12 [GALUTEOLIN]
inhibition at 10 µM [1]: 45.1%
viability at 70 h, 1 µM [2]: 101%
viability at 70 h, 3 µM [3]: 104%
viability at 70 h, 30 µM [8]: 85.5%
inhibition at 100 µM [13]: 15.1%
viability at 70 h, 10 µM [4]: 103%
viability at 70 h, 100 µM [17]: 57.6%
inhibition [5]: 61%
inhibition at 3 µM [6]: 14%
inhibition at 1 µM [7]: 14.8%
inhibition at 30 µM [20]: 11%

O=c1c(O[C@@H]2O[C@H](CO)[C@@H](O)[C@H](O)[C@H]2O)c(-c2ccc(O)c(O)c2)oc2cc(O)cc(O)c12 [ISOQUERCETIN]
inhibition at 10 µM [1]: 20.7%
viability at 70 h, 1 µM [2]: 99.8%
viability at 70 h, 3 µM [3]: 100%
viability at 70 h, 30 µM [8]: 87%
inhibition [21]: 5%
inhibition at 100 µM [13]: 20.7%
viability at 70 h, 10 µM [4]: 95.4%
viability at 70 h, 100 µM [17]: 76.3%
inhibition [5]: -2.5%
inhibition at 3 µM [6]: 33.2%
inhibition at 1 µM [7]: 16.7%
inhibition at 30 µM [20]: 23.2%

O=c1cc(-c2ccc(O)c(O)c2)oc2cc(O)cc(O)c12 [LUTEOLIN]
inhibition at 10 µM [1]: 38.1%
viability at 70 h, 1 µM [2]: 103%
viability at 70 h, 3 µM [3]: 102%
viability at 70 h, 30 µM [8]: 63.8%
Ratio [9]: 0.72
Ratio [10]: 0.83
Ratio [11]: 0.74
Ratio [12]: 0.89
inhibition [21]: 33.5%
Ratio [14]: 0.9
Ratio [15]: 0.82
viability at 70 h, 10 µM [4]: 77.2%
Ratio [16]: 0.46
viability at 70 h, 100 µM [17]: 12.6%
inhibition [5]: 28.7%
inhibition at 3 µM [6]: 13.5%
Ratio [18]: 0.86
Ratio [19]: 0.93
inhibition at 1 µM [7]: 6.2%
inhibition at 30 µM [20]: 76.7%

O=c1c(O)c(-c2ccc(O)c(O)c2)oc2cc(O)cc(O)c12 [QUERCETIN]
inhibition at 10 µM [1]: 34.3%
viability at 70 h, 1 µM [2]: 104%
viability at 70 h, 3 µM [3]: 103%
viability at 70 h, 30 µM [8]: 89.1%
Ratio [9]: 0.56
Ratio [10]: 0.7
Ratio [11]: 0.55
Ratio [12]: 0.72
Ratio [14]: 0.81
Ratio [15]: 0.59
viability at 70 h, 10 µM [4]: 106%
Ratio [16]: 0.45
inhibition [5]: 30.2%
inhibition at 3 µM [6]: 17.1%
Ratio [18]: 0.68
Ratio [19]: 0.68
inhibition at 1 µM [7]: 13.9%
inhibition at 30 µM [20]: 72.5%

O=c1c(O)c(-c2ccc(O[C@@H]3O[C@H](CO)[C@@H](O)[C@H](O)[C@H]3O)c(O)c2)oc2cc(O)cc(O)c12 [SPIRAEOSIDE]
inhibition at 10 µM [1]: 31.4%
viability at 70 h, 1 µM [2]: 105%
viability at 70 h, 3 µM [3]: 107%
viability at 70 h, 30 µM [8]: 95.8%
inhibition [21]: 70.7%
inhibition at 100 µM [13]: 21.4%
viability at 70 h, 10 µM [4]: 106%
viability at 70 h, 100 µM [17]: 74%
inhibition [5]: 51%
inhibition at 3 µM [6]: 24.4%
inhibition at 1 µM [7]: 22.4%
inhibition at 30 µM [20]: 34.7%

COc1ccc(-c2cc(=O)c3c(O)cc(O[C@@H]4O[C@H](CO)[C@@H](O)[C@H](O)[C@H]4O)cc3o2)cc1 [TILIANINE]
inhibition at 10 µM [1]: -36.6%
viability at 70 h, 1 µM [2]: 93.2%
viability at 70 h, 3 µM [3]: 98.3%
inhibition [21]: 5.3%
viability at 70 h, 10 µM [4]: 74.2%
inhibition [5]: -8.1%
inhibition at 3 µM [6]: -1.1%
inhibition at 1 µM [7]: -5.9%
